Results taken from patent US4748116A, “Peptide substrates for determination of protease activity” (KabiVitrum AB, priority 1980, dated 1988).
Counter-ions that a name gives are not always drawn.

Conditions: pH 8.3

stability of substrate: very stable
SMILES: CC(C)C[C@H](NC(=O)[C@@H](NC(=O)OC(C)(C)C)C(C)C)C(=O)N[C@@H](CCCCN)C(=O)Nc1ccc2c(=O)[nH][nH]c(=O)c2c1 [XXI, Boc--Val--Leu--Lys--Isl.HCl]
